Experimental data as given in patent publication US11249082B2, “Zika virus assay systems” (UNIVERSITY OF MIAMI, priority 2016, dated 2022).

How the values were obtained:
[1] = test system: intact ZIKV particles; test: Direct ELISA of biotinylated peptides vs intact ZIKV particles; format: binding, Zika virus (ZIKV); conditions: dose-response curves
Protocol: (§1) To optimize all parameters of the direct ELISA protocol, Pierce 96-Well Polystyrene Plates, (ThermoFisher Scientific) were coated overnight at 4° C. with different concentrations of intact virus particles (ZIKV or DENV). The intact virus particles were diluted using 100 mM NaHCO3, pH 9.6, and aliquots of 100 μL were dispensed into each well of the plate using a multichannel pipette. This buffer pH assured a strong hydrophobic binding interaction between polystyrene and virus particles.
(§2) Intact particles both ZIKV and DENV were provided by Dr. Watkins group (University of Miami, Dep. of Pathology). The samples were controlled and counted by focus forming assay and RT-PCR, the details were reported in a previous work (Magnani et al., 2017). The Intact particles of ZIKV were inactivated using gamma irradiation. Assay biohazardous steps were carried out according to standard safety procedures.
After coating the plates overnight, the intact virus particles were removed by washing five times with the washing buffer (PBST) 10 mM PBS pH 7.4, 0.1% Tween-20, using an automated plate washer (MultiWash+, Molecular Devices, Sunnyvale, Calif.). Then, the plates were blocked with 200 μL of blocking buffers while shaking at 300 rpm at room temperature. The blocking buffers used were: Pierce™ Protein-Free (PBS) Blocking Buffer (PF), Blocker™ BLOTTO in TBS, SuperBlock™ Blocking Buffer, Blocker™ BSA (1×) in PBS. All blocking buffer were from ThermoFisher Scientific.
After 2 h the blocking buffers were removed using the same washing procedure mentioned above. 100 μL-aliquots of several dilutions of peptides biotinylated in 10 mM PBS pH 7.4 were placed in each well and incubated for 2 h while shaking at 300 rpm at room temperature. After the incubation, the unreacted peptides were removed by using the plate washer with the same settings. Then, 100 μL-aliquots of streptavidin-HRP (ThermoFisher Scientific) at a concentration of 20 ng/mL were added into each well and incubated for 30 min at room temperature without shaking. After the incubation, excess streptavidin-HRP was removed and the wells were washed with the plate washer five times using the washing buffer. Finally, 100 μL-aliquots of the Ultra TMB-ELISA Substrate Solution (ThermoFisher Scientific) were added and after 10 min the reaction was stopped by adding 100 μL aliquots of the TMB stop solution (SeraCare). The emission (450 nm) was read using a microplate reader (Clariostar Optima; BMG Labtech, Ortenberg, Germany).
The corresponding blank signals in triplicates were obtained by using all reagents without peptides. The blank signal was then subtracted to the average absorbance values for triplicate wells of each test. […]

[2] = test system: intact ZIKV particles; test: Direct ELISA matrix effect in urine and serum; format: binding, Zika virus (ZIKV); conditions: urine diluted 1:1, serum 1:10; 10^5 and 10^6 copies/mL ZIKV coated
Protocol: Usually, the presence of ZIKV in affected bodies is detected in biological fluids. Therefore, the analytical sensitivity of the selected peptides was tested in two biological matrices, namely, urine and serum. The matrix effect was investigated to understand how real biological fluids could modify the binding efficiency of the peptides.
FIG. 4 depicts the ELISA data using solutions of peptides with or without the urine and serum obtained coating clear 96-well plates with 10^^5 and 10^^6 copies/mL of intact ZIKV particles. Urine and serum were 1:1 and 1:10 diluted, respectively, with a concentrated peptide PBS solution (10 mM PBS, pH 7.4) to obtain a peptide final concentration of 0.5 μM for C3 and C6, 5 μM for C7 and 20 μM for mono-arm peptides (P2 and X1).

[3] = test system: three serotypes of DENV (DENV-1, -2 and -3); test: Direct ELISA cross-reactivity study, ZIKV vs DENV; format: binding, Dengue virus (DENV); conditions: all DENV serotypes; plates coated with 10^5 copies/mL of intact virus particles
Protocol: as §1, §2
(§3) The cross-reactivity among Flaviviruses is a key parameter to be tested for this assay. Using the same ELISA protocol, the three clamp peptides (C3, C6 and C7) with higher sensitivity versus the intact ZIKV particles where employed to test the ability to discriminate ZIKV from the three serotypes of DENV (DENV-1, -2 and -3).
(§4) The results shown in FIG. 4 were obtained by coating clear 96-well plates with a solution of 10^^5 copies/mL of intact virus particles. […]

[4] = test system: DENV-2; test: Direct ELISA cross-reactivity study, DENV-2; format: binding, Dengue virus (DENV); conditions: plates coated with 10^5 copies/mL of intact virus particles
Protocol: as §1, §2, §3, §4

[5] = test system: DENV-3; test: Direct ELISA cross-reactivity study, DENV-3; format: binding, Dengue virus (DENV); conditions: plates coated with 10^5 copies/mL of intact virus particles
Protocol: as §1, §2, §3, §4

Substance	dynamic range width (orders of magnitude) [1]	performance in urine and serum [2]	signal decrease, DENV relative to ZIKV [3]	signal decrease, DENV-2 relative to ZIKV [4]	signal decrease, DENV-3 relative to ZIKV [5]
C3: clamp peptide: WPWIGT (18) - bridge GPGCCGPG (32) - KRNATP (26) (WPWIGTGPGCCGPGKRNATP; C3 Binds to Active Site 2; Bridge peptide; C3 Binds to Active Site 1)	three-order of magnitude dynamic range	better performance in urine than serum	around 70%		
C6: clamp peptide: AGRRP (20) - bridge GPGCCGPG (32) - LRGHA (25) (AGRRPGPGCCGPGLRGHA; C5 Binds to Active Site 2; Bridge peptide; C2 Binds to Active Site 1)	three-order of magnitude dynamic range	strong decrease in the signal		45%	55%
C7: clamp peptide: MDSPIK (22) - bridge GPGCCGPG (32) - KRNATP (26) (MDSPIKGPGCCGPGKRNATP; C7 Binds to Active Site 2; Bridge peptide; C3 Binds to Active Site 1)	three-order of magnitude dynamic range	best performance among the three clamp peptides, having higher signals in serum than in urine	around 70%		
C-SWPGQ (CSWPGQ; P1) [mono-arm pentapeptide with N-terminal cysteine]	one order of magnitude dynamic range				
